Assays:
Format in all cases: ADME, organism-based
[1] = Drug level in HIV-infected pregnant woman amniotic fluid at 300 mg, po BID by LC/MS/MS analysis; settings: human, in vivo
[2] = Drug level in HIV-infected pregnant woman cord blood plasma at 300 mg, po BID by LC/MS/MS analysis; settings: human, in vivo
[3] = Drug level in HIV-infected pregnant woman maternal blood plasma at 300 mg, po BID by LC/MS/MS analysis; settings: human, in vivo
[4] = Drug level in HIV-infected pregnant woman cord blood plasma at 400 mg, po BID by HPLC/UV analysis; settings: human, in vivo
[5] = Drug level in HIV-infected pregnant woman maternal blood plasma at 400 mg, po BID by HPLC/UV analysis; settings: human, in vivo
[6] = Drug level in HIV-infected pregnant woman amniotic fluid at 400 mg, po BID by HPLC/UV analysis; settings: human, in vivo
[7] = Ratio of drug level in HIV-infected pregnant woman amniotic fluid to maternal blood plasma at 200 mg, po BID by HPLC/UV analysis; settings: female, human
[8] = Drug level in HIV-infected pregnant woman maternal blood plasma at 200 mg, po BID by HPLC/UV analysis; settings: human, in vivo
[9] = Drug level in HIV-infected pregnant woman cord blood plasma at 200 mg, po BID by HPLC/UV analysis; settings: human, in vivo
[10] = Ratio of drug level in HIV-infected pregnant woman cord blood plasma to maternal blood plasma at 200 mg, po BID by HPLC/UV analysis; settings: female, human
[11] = Drug level in HIV-infected pregnant woman amniotic fluid at 200 mg, po BID by HPLC/UV analysis; settings: human, in vivo
[12] = Drug level in HIV-infected pregnant woman maternal blood plasma at 100 mg, po BID by HPLC/UV analysis; settings: human, in vivo
[13] = Drug level in HIV-infected pregnant woman cord blood plasma at 100 mg, po BID by HPLC/UV analysis; settings: human, in vivo
[14] = Drug level in HIV-infected pregnant woman amniotic fluid at 100 mg, po BID by HPLC/UV analysis; settings: human, in vivo
[15] = Ratio of drug level in HIV-infected pregnant woman cord blood plasma to maternal blood plasma at 100 mg, po BID by HPLC/UV analysis; settings: female, human
[16] = Ratio of drug level in HIV-infected pregnant woman amniotic fluid to maternal blood plasma at 100 mg, po BID by HPLC/UV analysis; settings: female, human
[17] = Drug level in HIV-infected pregnant woman amniotic fluid at 150 mg, po BID by LC/MS/MS analysis; settings: human, in vivo
[18] = Drug level in HIV-infected pregnant woman cord blood plasma at 150 mg, po BID by LC/MS/MS analysis; settings: human, in vivo
[19] = Drug level in HIV-infected pregnant woman maternal blood plasma at 150 mg, po BID by LC/MS/MS analysis; settings: human, in vivo
[20] = Ratio of drug level in HIV-infected pregnant woman amniotic fluid to maternal blood plasma at 1250 mg, po BID by HPLC/UV analysis; settings: female, human
[21] = Drug level in HIV-infected pregnant woman maternal blood plasma at 1250 mg, po BID by HPLC/UV analysis; settings: human, in vivo
[22] = Ratio of drug level in HIV-infected pregnant woman cord blood plasma to maternal blood plasma at 1250 mg, po BID by HPLC/UV analysis; settings: female, human
[23] = Drug level in HIV-infected pregnant woman amniotic fluid at 1250 mg, po BID by HPLC/UV analysis; settings: human, in vivo
[24] = Drug level in HIV-infected pregnant woman cord blood plasma at 1250 mg, po BID by HPLC/UV analysis; settings: human, in vivo
[25] = Drug level in HIV-infected pregnant woman cord blood plasma at 300 mg, po QD by LC/MS/MS analysis; settings: human, in vivo
[26] = Drug level in HIV-infected pregnant woman maternal blood plasma at 300 mg, po QD by LC/MS/MS analysis; settings: human, in vivo
[27] = Drug level in HIV-infected pregnant woman amniotic fluid at 300 mg, po QD by LC/MS/MS analysis; settings: human, in vivo
[28] = Ratio of drug level in HIV-infected pregnant woman cord blood plasma to maternal blood plasma at 300 mg, po QD by LC/MS/MS analysis; settings: female, human
[29] = Ratio of drug level in HIV-infected pregnant woman amniotic fluid to maternal blood plasma at 300 mg, po QD by LC/MS/MS analysis; settings: female, human

SMILES: Cc1cn([C@H]2C[C@H](N=[N+]=[N-])[C@@H](CO)O2)c(=O)[nH]c1=O [ZIDOVUDINE]
- Drug uptake [1]: 2249 ng/mL
- Drug uptake [2]: 605 ng/mL
- Drug uptake [3]: 557 ng/mL

SMILES: Cc1cccc(C)c1OCC(=O)N[C@@H](Cc1ccccc1)[C@@H](O)C[C@H](Cc1ccccc1)NC(=O)[C@H](C(C)C)N1CCCNC1=O [LOPINAVIR]
- Drug uptake [4]: 80 ng/mL
- Drug uptake [5]: 3451 ng/mL
- Drug uptake [6]: 60 ng/mL

SMILES: Cc1ccnc2c1NC(=O)c1cccnc1N2C1CC1 [NEVIRAPINE]
- Kp [7]: 0.53
- Drug uptake [8]: 2595 ng/mL
- Drug uptake [9]: 1538 ng/mL
- Kp [10]: 0.59
- Drug uptake [11]: 1385 ng/mL

SMILES: CC(C)c1nc(CN(C)C(=O)N[C@H](C(=O)N[C@@H](Cc2ccccc2)C[C@H](O)[C@H](Cc2ccccc2)NC(=O)OCc2cncs2)C(C)C)cs1 [RITONAVIR]
- Drug uptake [12]: 256 ng/mL
- Drug uptake [13]: 20 ng/mL
- Drug uptake [14]: 12 ng/mL
- Kp [15]: 0.55
- Kp [16]: 0.02

SMILES: Nc1ccn([C@@H]2CS[C@H](CO)O2)c(=O)n1 [LAMIVUDINE]
- Drug uptake [17]: 931 ng/mL
- Drug uptake [18]: 216 ng/mL
- Drug uptake [19]: 271 ng/mL

SMILES: Cc1c(O)cccc1C(=O)N[C@@H](CSc1ccccc1)[C@H](O)CN1C[C@H]2CCCC[C@H]2C[C@H]1C(=O)NC(C)(C)C
- Kp [20]: 1
- Drug uptake [21]: 65 ng/mL
- Kp [22]: 0.49
- Drug uptake [23]: 12 ng/mL
- Drug uptake [24]: 25 ng/mL

SMILES: C[C@H](Cn1cnc2c(N)ncnc21)OCP(=O)(O)O [TENOFOVIR ANHYDROUS]
- Drug uptake [25]: 30 ng/mL
- Drug uptake [26]: 5 ng/mL
- Drug uptake [27]: 791 ng/mL
- Kp [28]: 6
- Kp [29]: 158
